Laboratory results published in US10117837B2, “Methods of preparing stimuli-responsive multifunctional nanoparticles” (priority 2017, dated 2018).

What was measured:
[1] = tested on: OVCAR-3 cells; assay: Cellular uptake by fluorescence microscopy in OVCAR-3 cells; assay type: cell-based, human; conditions: 4 hours, equivalent to 50 mg/mL DOX
Description: The cellular uptake of the stimuli-responsive multifunctional nanoparticle of the present invention and the intracellular drug delivery were investigated by fluorescence microscopy. Human ovarian cancer cells OVCAR-3 and mouse embryonic fibroblasts NIH3T3 were cultured to 70-80% confluence and seeded onto 4-well chamber slides (BD Falcon, USA) at a density of 1×10^5 cells/well. After incubation at 37° C. for 24 hours, DOX.HCl, the HA-cys-ADOX nanoparticles (referred to as HA NPs), or the LHRH-HA-cys-ADOX nanoparticles (referred to as LHRH NPs) dissolved in DMEM at concentrations equivalent to 50 mg/mL DOX was added to the cells for a 2-hour incubation at 37° C. Cells treated with DMEM were the negative control group (NC). Next, fluorescent dyes Lysotracker Green and DAPI in DMEM were sequentially added to the abovementioned cells to stain endosome/lysosome for 2 hours and nuclei for 1 hour. After all the reagents were removed, the cells were washed with PBS (pH 7.4) three times, followed by addition of a mounting medium to fix the cells and prevent fluorescence fading. Cells were examined using a fluorescent microscope (Zeiss, Germany).

[2] = tested on: OVCAR-3/luc orthotopic ovarian tumor; assay: TUNEL staining of ovarian tumor sections; assay type: in vivo, nude mice; conditions: after 20 days of treatment
Description: (§1) Tumors and normal ovaries from mice with different treatments were collected for histological assay after mice were sacrificed. […] paraffin tissue sections were prepared for analysis. Morphology of tumors and normal ovaries were examined by haematoxylin and eosin (H&E) staining. TUNEL staining were used for the live/dead assay in the tissue sections using DeadEnd™ Fluorometric TUNEL System (Promega, USA). Tissue sections were examined at magnification of 400× using fluorescent microscope (Zeiss, Germany).
(§2) The therapeutic effect of the stimuli-responsive multifunctional nanoparticle of the present invention on ovarian cancer cells was further analyzed histologically after the mice were treated differently as mentioned above for 20 days and sacrificed.

[3] = tested on: OVCAR-3/luc orthotopic ovarian tumor; assay: H&E staining of ovarian tumor sections; assay type: in vivo, nude mice; conditions: after 20 days of treatment
Description: as §1, §2

[4] = tested on: OVCAR-3 cells; assay: Cell viability (MTS assay) in OVCAR-3 cells; assay type: cell-based, human; conditions: OVCAR-3, 48 hours, various concentrations
Description: (§3) The cytotoxicity and anticancer effect of the stimuli-responsive multifunctional nanoparticle of the present invention was evaluated by cell viability assay in NIH3T3 and OVCAR-3 cells. The cells were seeded in a 96-well plate at a density of 5×10^3 cells/well and incubated at 37° C. for 24 hours. Next, DOX.HCl, the HA-cys-ADOX nanoparticles, or the LHRH-HA-cys-ADOX nanoparticles dissolved in DMEM at predetermined concentrations equivalent to DOX was added to the cells. Cells treated with DMEM were the negative control group. After incubation at 37° C. for 48 hours, the cells were washed with PBS (pH 7.4). Cell viability was measured by MTS assay (CellTiter 96® AQueous One Solution Cell Proliferation Assay (Promega, USA)) according to the manufacturer's instructions and calculated as the ratio of light absorbance at […] of the experimental group to that of the negative control group.

[5] = tested on: OVCAR-3/luc orthotopic ovarian tumor; assay: Anti-tumor effect in orthotopic ovarian tumor xenograft model, ROI size by bioluminescence imaging; assay type: in vivo, nude mice; conditions: day 20, dose equivalent to 5 mg/kg of DOX via tail vein
Description: The orthotopic human ovarian cancer xenograft model was established using 6-8 week old female athymic nude mice purchased from National Laboratory Animal Center (Taipei, Taiwan). All mouse procedures were approved by the Institutional Animal Care and Use Committee (IACUC) of National Tsing Hua University. Prior to surgery, the mouse was laid dorsal side up under anesthetic. The incision was made left or right of the midline and directly above the ovarian fat pad. The ovarian fat pad was gently pulled out and rested onto a sterile saline soaked gauze pad. Under a dissecting microscope, the ovary was allowed for the insertion of a 30 gauge needle into the bursa. Suspension (1×10^6) of OVCAR-3/luc cells in a maximum volume of […] was slowly injected between the bursa and the ovary. […]
Growth of tumor was monitored by bioluminescence imaging (BLI) using in vivo imaging system (Caliper Life Sciences). […] Prior to being monitored, the tumor-implanted mice were injected intraperitoneally with 150 mg/kg of D-luciferin substrate. The Regions of Interest (ROIs) in tumor area were selected and used for quantification of tumor size by the software provided by the Caliper Life Sciences. Volumes or sizes of ROIs were calculated as L×W^2/2, where L was the largest and W was the smallest diameter of each ROI. […]

[6] = tested on: NIH3T3 cells; assay: Cell viability (MTS assay) in NIH3T3 cells; assay type: cell-based, mouse; conditions: NIH3T3, 48 hours, various concentrations
Description: as §3

For `COc1cccc2c1C(=O)c1c(O)c3c(c(O)c1C2=O)C[C@@](O)(C(=O)CO)C[C@@H]3O[C@H]1C[C@H](N)[C@H](O)[C@H](C)O1.Cl` [free DOX, doxorubicin hydrochloride], the “difference in intensity of intracellular DOX fluorescence between OVCAR-3 and NIH3T3 cells” value [1] was “no difference”, the “TUNEL fluorescence signal (apoptotic cells) in tumors” value [2] was “no significant TUNEL fluorescence signal” and the “tumor cell morphology (H&E staining)” value [3] was “cell proliferation with dense nuclei in random pattern”. The “cytotoxicity / anticancer effect” value [4] was “dose-dependent”, the “ROI size relative to that of the LHRH-NPs/Cy5.5-treated mice” value [5] was 4.3 fold and the cytotoxicity [6] was “dose-dependent”.
